Assay results reported in US20250163016A1, “PYRIDINE DERIVATIVE, PREPARATION METHOD THEREFOR AND USE THEREOF” (CHENGDU EASTON BIOPHARMACEUTICALS CO., LTD., priority 2022, published 2025).

Key:
[1] = Liver microsome stability, dogs; assay type: in vitro ADME; details: Dogs liver microsomes; for CLint scaled / half-life: dog; for half-life: NADPH, 37° C.
Method: (§1) A liver microsome in-vitro warm incubation method used liver microsomes, supplemented by an NADPH regeneration system, to simulate physiological environmental conditions in vitro for metabolic reaction, after a certain period of reaction, LC-MS/MS was used to determine prototype drugs and metabolites in a warm incubation solution, and the content was preliminarily analyzed. Studying the liver microsome stability of drugs in different species was crucial for understanding a change process of the drugs in vivo.
(§2) 2.1. Liver Microsomes in Different Species Including Rats, Mice, Humans, Dogs and Monkeys
(§3) According to the requirements of the instructions of a Phase I Metabolic Stability Kit, a liver microsome incubation system was prepared, and according to a sequence, a mixed system of a PBS, liver microsomes, an NADPH regeneration system solution A and an NADPH regeneration system solution B, as well as substances to be tested were added in sequence respectively, and were incubated at 37° C. Each sample was parallelized 3 times, with a sample without an NADPH generation system as a negative control, after 0, 5, 15, 30, 45, and 60 min, equal volumes of pre-cooled acetonitrile were added to terminate the reaction respectively, and the prototype drug content in a warm incubation solution was determined by LC-MS/MS.

NCI-H1417 cells = assay: NCI-H1417 cell proliferation inhibition test (Celltiter GLO); assay type: cell-based; details: Homo sapiens, 168 h, NCI-H1417, 7 days culture
Method: Research had confirmed that LSD1 played a crucial role in the occurrence process of various types of cancers, including small cell lung cancer (SCLC) and acute myeloid leukemia (AML). Therefore, a human small cell lung cancer (NCI-H1417) cell line was used to determine the ATP content in cells at different drug concentrations using a Celltiter GLO assay kit, and the cell activity was reflected by luminescence intensity. IC50 values of different compounds on the NCI-H1417 cells were calculated using inhibition rates. The inhibitory effects of the compounds in the present application on the proliferation of the NCI-H1417 cells were studied to evaluate the anti-tumor efficacy of the tested compounds at the cellular level.
• Day 1 Cells were seeded into the 384-well cell culture plate and placed in a 37° C. 5% CO2 cell incubator to be cultured overnight. • Day 0 The compound to be tested was prepared into a 10 mM mother liquid using DMSO, starting from 1 μM, diluted by 3 folds, with 10 concentration points and double duplicate wells. A diluted compound was added into the 384-well cell culture plate and placed in a 37° C. 5% CO2 cell incubator to be cultured for 7 days. The concentration of the DMSO in a cell culture system was 0.1%. • Day 7 Celltiter GLO was added into the 384-well cell culture plate according to a volume ratio of culture system:Celltiter GLO=1:1, light-shielded oscillation was carried out on a plate oscillator for 3 min, then the cell culture plate was placed at the room temperature for 30 min with light shielded, and the plate was read using a multifunctional microplate reader chemical light emitting module.
An inhibition percentage was calculated by utilizing luminescence intensity of the above DMSO group (with DMSO added), test group (with the tested compound and a positive control solution added) and blank group (not treating cells), a calculation formula being
Using a logarithm of the concentration as an X axis and the percentage inhibition rate as a Y axis, a dose-response curve was fitted using a formula log(inhibitor) vs. response-Variable slope (Four parameters) of analysis software Graphpad Prism 8 to obtain the IC50 value of each compound on NCI-H1417 proliferation inhibition activity.

[2] = Pharmacokinetics of oral administration of rats; assay type: in vivo; details: male, rat, SD rats, p.o. 5.0 mg/kg, plasma
Method: With SD rats as tested animals, blood drug concentrations in plasma at different moments after oral administration of the compounds of the present application by the rats in a clarification kit mode were determined using an LC-MS/MS method. Pharmacokinetic parameters of the compounds of the present application in the rats were obtained, and pharmacokinetic characteristics of the compounds were studied.
• SD rats, male, weight 180-220 g, 3 rats per group. The animals were fed in an animal house after being purchased, an adaptation period was at least 3 days, and they were used for tests after passing quarantine.
According to Table 4, each group of rats was given the corresponding tested drugs or positive drugs by gavage, before administration, and 15 min, 30 min, 1 h, 2 h, 4 h, 6 h, 8 h, and 24 h after administration, a fixed volume of blood was collected through eye sockets and placed in an EDTA-K2 anticoagulant tube, centrifuging was carried out at 8000 rpm for 1 min to separate plasma into a centrifuge tube, and the plasma was frozen in a −20° C. refrigerator.
The plasma at each time point stored at −20° C. was taken out, then acetonitrile was added, after whirling at 1500 revolutions for 2 min, centrifuging was carried out for 15 min (3500 r/min), and a fixed volume of solution supernatant was taken for LC-MS/MS analysis.
Non-compartment model fitting was carried out on pharmacokinetic behaviors of the tested compounds, and DAS3.31 software was adopted to calculate main pharmacokinetic parameters (T1/2, Tmax, Cmax, AUClast, etc.).

[3] = Liver microsome stability, mice; assay type: in vitro ADME; details: Mice liver microsomes; for CLint scaled / half-life: mouse; for half-life: NADPH, 37° C.
Method: as §1, §2, §3

[4] = Liver microsome stability, humans; assay type: in vitro ADME; details: Humans liver microsomes; for CLint scaled / half-life: human; for half-life: NADPH, 37° C.
Method: as §1, §2, §3

[5] = Liver microsome stability, monkeys; assay type: in vitro ADME; details: Monkeys liver microsomes; for CLint scaled / half-life: monkey; for half-life: NADPH, 37° C.
Method: as §1, §2, §3

[6] = Liver microsome stability, rats; assay type: in vitro ADME; details: Rats liver microsomes; for CLint scaled / half-life: rat; for half-life: NADPH, 37° C.
Method: as §1, §2, §3

[7] = system: HL-60 cell subcutaneous heterograft tumor; assay: In-vivo efficacy in HL-60 cell subcutaneous heterograft tumor model; design: species or system Balb/C nu mice; details: HL-60 xenograft, qd, p.o., 10 mg/Kg, 10 days
Method: • DMEM culture medium containing 10% fetal bovine serum (FBS), 37° C., 5% CO2.
Balb/C nu mice, female, 6-8 weeks, weight about 18-22 grams, and each mouse was subcutaneously inoculated with 0.1 mL (1×10^7 cells+matrigel) of HL-60 cells on the right side. When an average volume of tumors reached 100-200 cubic millimeters, group administration was performed, see the table below (Table 13) for administration dosages and methods. The tumor volume was measured twice a week, the weights of the mice as well as lengths and widths of tumors were recorded in each time of measurement, and the tumor volume=length×width×width/2 mm^3. When the average tumor volume of a solvent group grew to 3000 cubic millimeters or above, administration was ended, and an average tumor volume difference between a tested compound group and the solvent group was obtained via comparison. The tumor suppression effects of the compounds were evaluated with TGI (%), which could reflect a tumor growth inhibition rate.

SMILES	Remaining (T = 60 min) [1]	CLint scaled [1]	half-life [1]	IC50 (NCI-H1417 cells)	AUC(0-t) [2]	Cmax [2]	Tmax [2]	half-life [2]	Remaining (T = 60 min) [3]	CLint scaled [3]	half-life [3]	Remaining (T = 60 min) [4]	CLint scaled [4]	half-life [4]	Remaining (T = 60 min) [5]	CLint scaled [5]	half-life [5]	Remaining (T = 60 min) [6]	CLint scaled [6]	half-life [6]	also measured
COc1ccc(-c2c(-c3ccc(C#N)c(F)c3)nc(N3CCC(N)CC3)n(C)c2=O)cc1F [CC-90011, reference compound]	76.6%	15.8 mL/min/kg	2.1 h	22.9 nM	356 ± 46.5 ng·h/mL	48.9 ± 12.5 ng/mL	3.33 ± 2.31 h	1.44 ± 0.52 h	72.2%	42.2 mL/min/kg	2.17 h	67.2%	13.2 mL/min/kg	1.57 h	56.8%	25 mL/min/kg	1.25 h	58.6%	31.2 mL/min/kg	1.33 h	TGI [7]: 35.3%
CC(C)(O)Cn1ncc2cc(-c3c(C#N)cc(N4CCC(N)CC4)nc3-c3ccc(C#N)c(F)c3)c(F)cc21 [Compound 16, 6-(4-aminopiperid-1-yl)-2-(4-cyano-3-fluorophenyl)-3-(6-fluoro-1-(2-hydroxyl-2-methylpropyl)-1H-indazol-5-yl)isonicotinonitrile]	76.4%	< 13.8 mL/min/kg	> 2.42 h	2.79 nM	561 ± 347 ng·h/mL	69.9 ± 33.5 ng/mL	4 h	3.46 ± 0.02 h	77.8%	< 38 mL/min/kg	> 2.42 h	70.8%	< 8.6 mL/min/kg	> 2.42 h	62.0%	19.2 mL/min/kg	1.62 h	72.1%	< 17.3 mL/min/kg	> 2.42 h	TGI [7]: 73.2%
CC(C)(O)Cn1nc(F)c2cc(-c3c(C#N)cc(N4CCC(N)CC4)nc3-c3ccc(C#N)c(F)c3)c(F)cc21 [Compound 36, 6-(4-aminopiperid-1-yl)-2-(4-cyano-3-fluorophenyl)-3-(3,6-difluoro-1-(2-hydroxyl-2-methylpropyl)-1H-indazol-5-yl)isonicotinonitrile]	76.3%	< 13.8 mL/min/kg	> 2.42 h	4 nM	769 ± 361 ng·h/mL	100 ± 54.4 ng/mL	4.67 ± 1.15 h	3.57 ± 0.34 h	75.5%	< 38 mL/min/kg	> 2.42 h	81.7%	< 8.6 mL/min/kg	> 2.42 h	72.1%	16.9 mL/min/kg	1.84 h	76.1%	< 17.3 mL/min/kg	> 2.42 h	
